Assay results published in ChEMBL document CHEMBL3393049, “Syntheses and Antituberculosis Activity of 1,3-Benzothiazinone Sulfoxide and Sulfone Derived from BTZ043” (ACS Med Chem Lett, 2015).
Values after ≈ are worked out from the molar mass of the structure shown.

Columns and labels:
[1] = system: Mycolicibacterium smegmatis; assay: Antimycobacterial activity against Mycobacterium smegmatis str. MC2 155 assessed as reduction in bacterial growth incubated for 18 to 20 hrs by broth microdilution method; assay type: functional
[2] = system: Mycolicibacterium vaccae; assay: Antimycobacterial activity against Mycobacterium vaccae IMET10670 assessed as reduction in bacterial growth incubated for 18 to 20 hrs by broth microdilution method; assay type: functional
[3] = system: Mycolicibacterium aurum; assay: Antimycobacterial activity against Mycobacterium aurum SB66 assessed as reduction in bacterial growth incubated for 18 to 20 hrs by broth microdilution method; assay type: functional
[4] = system: Staphylococcus aureus; assay: Antibacterial activity against Staphylococcus aureus SG511 assessed as reduction in bacterial growth incubated for 18 to 20 hrs by broth microdilution method; assay type: functional
[5] = system: Micrococcus luteus; assay: Antibacterial activity against Micrococcus luteus ATCC 10240 assessed as reduction in bacterial growth incubated for 18 to 20 hrs by broth microdilution method; assay type: functional
[6] = system: Pseudomonas aeruginosa; assay: Antibacterial activity against Pseudomonas aeruginosa KW799/61 assessed as reduction in bacterial growth incubated for 18 to 20 hrs by broth microdilution method; assay type: functional
[7] = system: Acinetobacter baumannii; assay: Antibacterial activity against Acinetobacter baumannii ATCC 17961 assessed as reduction in bacterial growth incubated for 18 to 20 hrs by broth microdilution method; assay type: functional
[8] = system: Mycobacterium tuberculosis; assay: Antimycobacterial activity against Mycobacterium tuberculosis H37Rv ATCC 27294 assessed as reduction in bacterial growth incubated for 7 days under 7H12 medium by MABA method; assay type: functional; conditions: H37Rv ATCC 27294, 168 h
[9] = system: Mycobacterium tuberculosis; assay: Antimycobacterial activity against Mycobacterium tuberculosis H37Rv ATCC 27294 assessed as reduction in bacterial growth incubated for 7 days under GAS medium by MABA method; assay type: functional; conditions: H37Rv ATCC 27294, 168 h
[10] = system: Mycobacterium marinum; assay: Antimycobacterial activity against Mycobacterium marinum ATCC 927 assessed as reduction in bacterial growth incubated for 5 days by MABA method; assay type: functional; conditions: ATCC 927, 120 h
[11] = system: Mycobacterium kansasii; assay: Antimycobacterial activity against Mycobacterium kansasii ATCC 12478 assessed as reduction in bacterial growth incubated for 6 days by MABA method; assay type: functional; conditions: ATCC 12478, 144 h
[12] = Cytotoxicity against human PC3 cells after 72 hrs by crystal violet biomass reduction assay; assay type: cell-based, PC-3
[13] = Cytotoxicity against human MCF7 cells after 72 hrs by crystal violet biomass reduction assay; assay type: cell-based
[14] = Cytotoxicity against human HeLa cells after 72 hrs by crystal violet biomass reduction assay; assay type: cell-based

C[C@H]1COC2(CCN(c3nc(=O)c4cc(C(F)(F)F)cc([N+](=O)[O-])c4[s+]3[O-])CC2)O1 (some centres not stated)
MIC [1]: < 0.013 µM
MIC [2]: < 0.013 µM
MIC [3]: 3.13 µM (≈ 1.4 µg/mL)
MIC ([4]; read-out: MIC): 12.5 µM (≈ 5.59 µg/mL)
MIC [5]: 50 µM (≈ 22.4 µg/mL)
MIC [6]: > 200 µM
MIC [7]: > 200 µM
MIC [8]: 0.06 µM (≈ 0.0268 µg/mL)
MIC [9]: < 0.02 µM
MIC [10]: 0.19 µM (≈ 0.085 µg/mL)
MIC [11]: 0.3 µM (≈ 0.134 µg/mL)
CC50 at 72 h [12]: 15 µM
CC50 at 72 h [13]: > 20 µM
CC50 at 72 h [14]: > 20 µM

C[C@H]1COC2(CCN(C3=NC(=O)c4cc(C(F)(F)F)cc([N+](=O)[O-])c4S3(=O)=O)CC2)O1
MIC [1]: > 0.5 µM
MIC [2]: < 0.013 µM
MIC [3]: > 200 µM
MIC [4]: 200 µM (≈ 92.7 µg/mL)
MIC [5]: > 200 µM
MIC [6]: > 200 µM
MIC [7]: > 200 µM
MIC [8]: 0.48 µM (≈ 0.222 µg/mL)
MIC [9]: 0.51 µM (≈ 0.236 µg/mL)
MIC [10]: > 1 µM
MIC [11]: > 1 µM
CC50 at 72 h [12]: > 20 µM
CC50 at 72 h [13]: > 20 µM
CC50 at 72 h [14]: > 20 µM

C[C@H]1COC2(CCN(c3nc(=O)c4cc(C(F)(F)F)cc([N+](=O)[O-])c4s3)CC2)O1 [BTZ-043]
MIC [1]: 0.002 µM (≈ 0.000863 µg/mL)
MIC [2]: 0.002 µM (≈ 0.000863 µg/mL)
MIC [3]: > 200 µM
MIC [4]: > 200 µM
MIC [5]: > 200 µM
MIC [6]: > 200 µM
MIC [7]: > 200 µM
MIC [8]: < 0.02 µM
MIC [9]: < 0.02 µM
MIC [10]: 0.037 µM (≈ 0.016 µg/mL)
MIC [11]: < 0.02 µM
CC50 at 72 h [12]: > 20 µM
CC50 at 72 h [13]: > 20 µM
CC50 at 72 h [14]: > 20 µM

O=C(O)c1cn(C2CC2)c2cc(N3CCNCC3)c(F)cc2c1=O [CIPROFLOXACIN]
MIC [1]: 0.32 µM (≈ 0.106 µg/mL)
MIC [2]: 0.32 µM (≈ 0.106 µg/mL)
MIC [3]: 0.02 µM (≈ 0.00663 µg/mL)
MIC ([4]; read-out: MIC): 0.32 µM (≈ 0.106 µg/mL)
MIC [5]: 1.25 µM (≈ 0.414 µg/mL)
MIC [6]: 0.156 µM (≈ 0.0517 µg/mL)
MIC [7]: 0.156 µM (≈ 0.0517 µg/mL)

NNC(=O)c1ccncc1 [ISONIAZID]
MIC [8]: 0.1 µM (≈ 0.0137 µg/mL)
MIC [9]: 0.03 µM (≈ 0.00411 µg/mL)
MIC [10]: > 8 µM
MIC [11]: 3.86 µM (≈ 0.529 µg/mL)

CO[C@H]1/C=C/O[C@@]2(C)Oc3c(C)c(O)c4c(O)c(c(/C=N/N5CCN(C)CC5)c(O)c4c3C2=O)NC(=O)/C(C)=C\C=C\[C@H](C)[C@H](O)[C@@H](C)[C@@H](O)[C@@H](C)[C@H](OC(C)=O)[C@@H]1C [RIFAMPIN]
MIC [8]: 0.05 µM (≈ 0.0411 µg/mL)
MIC [9]: 0.04 µM (≈ 0.0329 µg/mL)
MIC [10]: 0.23 µM (≈ 0.189 µg/mL)
MIC [11]: 0.1 µM (≈ 0.0823 µg/mL)
